Results from patent publication US20230085307A1, “PYRIDAZINONE COMPOUND AND HERBICIDE” (NISSAN CHEMICAL CORPORATION, priority 2019, published 2023).

These compounds were tested on wild oat (assay: Test Example 4: herbicidal effect by soil treatment (Table 19, symbol I)). Settings: 320 g/ha.
Assay type: in vivo, wild oat (Avena fatua)
Procedure, shortened: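 Scoring uses the grading scale of an earlier test, three weeks post-application. Treatment consists of spraying a diluted emulsion formulation across the surface of sterilized diluvial soil in which seeds are buried near 1.5 cm deep; boxes are kept in a greenhouse between 25° C. and 30° C.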
For `CCCC(=O)Oc1c(C)nn(C)c(=O)c1-c1c(-c2ccccc2OC(F)(F)F)sc2ccc(F)cc12` [2-044], the “herbicidal effect rating, I: wild oat” value was 2 (Herbicidal rate of 20% or more and less than 40%).
For `CCOc1ccc(-c2sc3ccc(F)cc3c2-c2c(O)c(C)nn(C)c2=O)cc1` [2-030], the “herbicidal effect rating, I: wild oat” value was 0 (Herbicidal rate of 5% or less (almost no effect)).
For `CCCC(=O)Oc1c(C)nn(C)c(=O)c1-c1c(-c2ccc(Cl)cc2)sc2ccc(F)cc12` [2-011], the “herbicidal effect rating, I: wild oat” value was 0 (Herbicidal rate of 5% or less (almost no effect)).
In the case of `C#CCOc1ccc(-c2sc3ccc(F)cc3c2-c2c(OCOCCOC)c(C)nn(C)c2=O)cc1` [2-055], the “herbicidal effect rating, I: wild oat” value is reported as 0 (Herbicidal rate of 5% or less (almost no effect)).
With `CCCCCOc1ccc(-c2sc3ccc(F)cc3c2-c2c(OC(=O)CCC)c(C)nn(C)c2=O)cc1` [2-038] the “herbicidal effect rating, I: wild oat” value was 0 (Herbicidal rate of 5% or less (almost no effect)).
With `Cc1nn(C)c(=O)c(-c2c(-c3ccc(OCC4CC4)cc3)sc3ccc(F)cc23)c1O` [2-060] the “herbicidal effect rating, I: wild oat” value was 0 (Herbicidal rate of 5% or less (almost no effect)).
For `CCCC(=O)Oc1c(C)nn(C)c(=O)c1-c1c(-c2ccc(OC)c(OC)c2)sc2ccc(F)cc12` [2-089], the “herbicidal effect rating, I: wild oat” value was 0 (Herbicidal rate of 5% or less (almost no effect)).
In the case of `Cc1nn(C)c(=O)c(-c2c(-c3ccccc3OC(F)(F)F)sc3ccc(F)cc23)c1O` [2-043], the “herbicidal effect rating, I: wild oat” value is reported as 0 (Herbicidal rate of 5% or less (almost no effect)).
With `Cc1nn(C)c(=O)c(-c2c(-c3ccc(OCc4ccccc4)cc3)sc3ccc(F)cc23)c1O` [2-062] the “herbicidal effect rating, I: wild oat” value was 0 (Herbicidal rate of 5% or less (almost no effect)).
For `CCCC(=O)Oc1c(C)nn(C)c(=O)c1-c1c(-c2ccc(OC)c(F)c2)sc2ccc(F)cc12` [2-087], the “herbicidal effect rating, I: wild oat” value was 0 (Herbicidal rate of 5% or less (almost no effect)).
For `CCCC(=O)Oc1c(C)nn(C)c(=O)c1-c1c(-c2ccc(COC)cc2)sc2ccc(F)cc12` [2-023], the “herbicidal effect rating, I: wild oat” value was 0 (Herbicidal rate of 5% or less (almost no effect)).
With `CCCC(=O)Oc1c(C)nn(C)c(=O)c1-c1c(-c2ccc(CC)cc2)sc2ccc(F)cc12` [2-016] the “herbicidal effect rating, I: wild oat” value was 0 (Herbicidal rate of 5% or less (almost no effect)).
With `C=Cc1ccc(-c2sc3ccc(F)cc3c2-c2c(O)c(C)nn(C)c2=O)cc1` [2-018] the “herbicidal effect rating, I: wild oat” value was 0 (Herbicidal rate of 5% or less (almost no effect)).
With `CCCC(=O)Oc1c(C)nn(C)c(=O)c1-c1c(-c2ccc(OCC)cc2)sc2ccc(F)cc12` [2-031] the “herbicidal effect rating, I: wild oat” value was 0 (Herbicidal rate of 5% or less (almost no effect)).
With `COCc1ccc(-c2sc3ccc(F)cc3c2-c2c(O)c(C)nn(C)c2=O)cc1` [2-022] the “herbicidal effect rating, I: wild oat” value was 0 (Herbicidal rate of 5% or less (almost no effect)).
`Cc1nn(C)c(=O)c(-c2c(-c3ccc(OC4CCCC4)cc3)sc3ccc(F)cc23)c1O` [2-039] was tested, and the “herbicidal effect rating, I: wild oat” value was 0 (Herbicidal rate of 5% or less (almost no effect)).
`COCCOc1ccc(-c2sc3ccc(F)cc3c2-c2c(O)c(C)nn(C)c2=O)cc1` [2-056] was tested, and the “herbicidal effect rating, I: wild oat” value was 0 (Herbicidal rate of 5% or less (almost no effect)).
For `CCCCOc1ccc(-c2sc3ccc(F)cc3c2-c2c(OC(=O)CCC)c(C)nn(C)c2=O)cc1` [2-037], the “herbicidal effect rating, I: wild oat” value was 0 (Herbicidal rate of 5% or less (almost no effect)).
With `COc1ccc(-c2sc3ccc(F)cc3c2-c2c(O)c(C)nn(C)c2=O)cc1OC` [2-088] the “herbicidal effect rating, I: wild oat” value was 0 (Herbicidal rate of 5% or less (almost no effect)).

Same assay, conditions: AAH 320 g/ha
`Cc1nn(C)c(=O)c(-c2c(-c3ccc(OCC(F)(F)F)cc3)sc3ccccc23)c1O` [1-140] was tested, and the “I: wild oat, herbicidal effect rating” value was 0 (Herbicidal rate of 5% or less (almost no effect)).
`COCCOCOc1c(C)nn(C)c(=O)c1-c1c(-c2ccc(OCCC3OCCO3)cc2)sc2ccccc12` [1-224] was tested, and the “I: wild oat, herbicidal effect rating” value was 0 (Herbicidal rate of 5% or less (almost no effect)).
For `Cc1nn(C)c(=O)c(-c2c(-c3ccc(OC(F)F)cc3)sc3ccccc23)c1O` [1-201], the “I: wild oat, herbicidal effect rating” value was 0 (Herbicidal rate of 5% or less (almost no effect)).
With `C#CCOc1ccc(-c2sc3ccccc3c2-c2c(O)c(C)nn(C)c2=O)cc1` [1-136] the “I: wild oat, herbicidal effect rating” value was 0 (Herbicidal rate of 5% or less (almost no effect)).
With `CCCC(=O)Oc1c(C)nn(C)c(=O)c1-c1c(-c2ccc(C(F)(F)F)cc2)sc2ccccc12` [1-130] the “I: wild oat, herbicidal effect rating” value was 0 (Herbicidal rate of 5% or less (almost no effect)).
In the case of `C#CCSCc1ccc(-c2sc3ccccc3c2-c2c(O)c(C)nn(C)c2=O)cc1` [1-247], the “I: wild oat, herbicidal effect rating” value is reported as 0 (Herbicidal rate of 5% or less (almost no effect)).
For `COCCOCOc1c(C)nn(C)c(=O)c1-c1c(-c2ccc(OCCSC)cc2)sc2ccccc12` [1-221], the “I: wild oat, herbicidal effect rating” value was 0 (Herbicidal rate of 5% or less (almost no effect)).
For `Cc1nn(C)c(=O)c(-c2c(-c3ccc([N+](=O)[O-])cc3)sc3ccccc23)c1O` [1-151], the “I: wild oat, herbicidal effect rating” value was 0 (Herbicidal rate of 5% or less (almost no effect)).
In the case of `CCCC(=O)Oc1c(C)nn(C)c(=O)c1-c1c(-c2ccc([N+](=O)[O-])cc2)sc2ccccc12` [1-152], the “I: wild oat, herbicidal effect rating” value is reported as 0 (Herbicidal rate of 5% or less (almost no effect)).

Same assay, conditions: amount of applied herbicide 320 g/ha
For `Cc1nn(C)c(=O)c(-c2c(-c3ccc(OC(F)F)cc3)sc3ccc(F)cc23)c1OC(=O)COc1ccccc1` [2-284], the “herbicidal effect on I: wild oat” value was 3 (Herbicidal rate of 40% or more and less than 70%).
`Cc1ccccc1C(=O)Oc1c(C)nn(C)c(=O)c1-c1c(-c2ccc(OC(F)F)cc2)sc2ccc(F)cc12` [2-285] was tested, and the “herbicidal effect on I: wild oat” value was 0 (Herbicidal rate of 5% or less (almost no effect)).
`Cc1nn(C)c(=O)c(-c2c(-c3ccc(C#N)cc3)sc3ccc(Cl)cc23)c1O` [2-112] was tested, and the “I: wild oat, herbicidal effect rating” value was 0 (Herbicidal rate of 5% or less (almost no effect)).
With `Cc1nn(C)c(=O)c(-c2c(-c3ccc(SC(C)C)cc3)sc3ccc(F)cc23)c1O` [2-252] the “herbicidal effect on I: wild oat” value was 0 (Herbicidal rate of 5% or less (almost no effect)).
`CCCC(=O)Oc1c(C)nn(C)c(=O)c1-c1c(-c2ccc(OC3CC3)cc2)sc2ccc(F)cc12` [2-218] was tested, and the “I: wild oat, herbicidal effect rating” value was 0 (Herbicidal rate of 5% or less (almost no effect)).
`Cc1nn(C)c(=O)c(-c2c(-c3ccc(Cl)cc3F)sc3ccc(F)cc23)c1O` [2-348] was tested, and the “herbicidal effect on I: wild oat” value was 0 (Herbicidal rate of 5% or less (almost no effect)).
In the case of `CCCC(=O)Oc1c(C)nn(C)c(=O)c1-c1c(-c2cccc(F)c2)sc2ccc(F)cc12` [2-202], the “I: wild oat, herbicidal effect rating” value is reported as 0 (Herbicidal rate of 5% or less (almost no effect)).
For `C#CCSCc1ccc(-c2sc3ccc(F)cc3c2-c2c(O)c(C)nn(C)c2=O)cc1` [2-325], the “herbicidal effect on I: wild oat” value was 0 (Herbicidal rate of 5% or less (almost no effect)).
With `COc1ccc(-c2sc3ccccc3c2-c2c(O)c(C)nn(C)c2=O)cc1OC` [1-072] the “herbicidal effect rating, I: wild oat” value was 2 (Herbicidal rate of 20% or more and less than 40%).
In the case of `Cc1nn(C)c(=O)c(-c2c(-c3cccc(OC(C)C)c3)sc3ccc(F)cc23)c1O` [2-215], the “I: wild oat, herbicidal effect rating” value is reported as 0 (Herbicidal rate of 5% or less (almost no effect)).
With `CCCC(=O)Oc1c(C)nn(C)c(=O)c1-c1c(-c2ccc(SC3CC3)cc2)sc2ccc(F)cc12` [2-255] the “herbicidal effect on I: wild oat” value was 0 (Herbicidal rate of 5% or less (almost no effect)).
For `CCCSc1ccc(-c2sc3ccc(F)cc3c2-c2c(OC(=O)CCC)c(C)nn(C)c2=O)cc1` [2-249], the “herbicidal effect on I: wild oat” value was 0 (Herbicidal rate of 5% or less (almost no effect)).
`Cc1nn(C)c(=O)c(-c2c(-c3ccc4c(c3)OCO4)sc3ccccc23)c1O` [1-087] was tested, and the “herbicidal effect rating, I: wild oat” value was 0 (Herbicidal rate of 5% or less (almost no effect)).
In the case of `Cc1nn(C)c(=O)c(-c2c(-c3ccc(OC(F)F)cc3)sc3ccc(F)cc23)c1OC(=O)C1CCCC1` [2-280], the “herbicidal effect on I: wild oat” value is reported as 0 (Herbicidal rate of 5% or less (almost no effect)).
`CCCC(=O)Oc1c(C)nn(C)c(=O)c1-c1c(-c2ccc(F)c(F)c2)sc2ccc(F)cc12` [2-345] was tested, and the “herbicidal effect on I: wild oat” value was 1 (Herbicidal rate of 5% or more and less than 20%).
For `COCCOC(=O)Oc1c(C)nn(C)c(=O)c1-c1c(-c2ccc(OC(F)F)cc2)sc2ccc(F)cc12` [2-295], the “herbicidal effect on I: wild oat” value was 1 (Herbicidal rate of 5% or more and less than 20%).
In the case of `CCCC(=O)Oc1c(C)nn(C)c(=O)c1-c1c(-c2ccc(Cl)cc2)sc2ccc(Cl)cc12` [2-100], the “I: wild oat, herbicidal effect rating” value is reported as 0 (Herbicidal rate of 5% or less (almost no effect)).
With `Cc1nn(C)c(=O)c(-c2c(-c3ccc(OC(F)F)cc3)sc3ccc(F)cc23)c1OC(=O)c1cccs1` [2-288] the “herbicidal effect on I: wild oat” value was 0 (Herbicidal rate of 5% or less (almost no effect)).
In the case of `CCCC(=O)Oc1c(C)nn(C)c(=O)c1-c1c(-c2cccc(OCC(C)C)c2)sc2ccc(F)cc12` [2-222], the “herbicidal effect on I: wild oat” value is reported as 0 (Herbicidal rate of 5% or less (almost no effect)).
With `Cc1nn(C)c(=O)c(-c2c(-c3ccc(C(F)F)cc3)sc3ccc(F)cc23)c1O` [2-227] the “herbicidal effect on I: wild oat” value was 0 (Herbicidal rate of 5% or less (almost no effect)).
In the case of `C=C(C)C(=O)Oc1c(C)nn(C)c(=O)c1-c1c(-c2ccc(OC(F)F)cc2)sc2ccc(F)cc12` [2-281], the “herbicidal effect on I: wild oat” value is reported as 0 (Herbicidal rate of 5% or less (almost no effect)).
`Cc1nn(C)c(=O)c(-c2c(-c3ccc(C#N)cc3)sc3ccc(F)cc23)c1O` [2-340] was tested, and the “herbicidal effect on I: wild oat” value was 3 (Herbicidal rate of 40% or more and less than 70%).
`CCCC(=O)Oc1c(C)nn(C)c(=O)c1-c1c(-c2ccc(SC(C)C)cc2)sc2ccc(F)cc12` [2-253] was tested, and the “herbicidal effect on I: wild oat” value was 0 (Herbicidal rate of 5% or less (almost no effect)).
For `CCCCCOc1cccc(-c2sc3ccc(F)cc3c2-c2c(O)c(C)nn(C)c2=O)c1` [2-225], the “herbicidal effect on I: wild oat” value was 0 (Herbicidal rate of 5% or less (almost no effect)).
With `Cc1nn(C)c(=O)c(-c2c(-c3ccc(OC4CC4)cc3)sc3ccc(F)cc23)c1O` [2-217] the “I: wild oat, herbicidal effect rating” value was 0 (Herbicidal rate of 5% or less (almost no effect)).
In the case of `CCCC(=O)Oc1c(C)nn(C)c(=O)c1-c1c(-c2ccc(OC(C)C)cc2)sc2ccccc12` [1-021], the “herbicidal effect rating, I: wild oat” value is reported as 0 (Herbicidal rate of 5% or less (almost no effect)).
`COCCSCc1ccc(-c2sc3ccc(F)cc3c2-c2c(O)c(C)nn(C)c2=O)cc1` [2-327] was tested, and the “herbicidal effect on I: wild oat” value was 0 (Herbicidal rate of 5% or less (almost no effect)).
For `C=CCSCc1ccc(-c2sc3ccc(F)cc3c2-c2c(O)c(C)nn(C)c2=O)cc1` [2-323], the “herbicidal effect on I: wild oat” value was 0 (Herbicidal rate of 5% or less (almost no effect)).
